Measured values from ChEMBL document CHEMBL3232962, “Identification and optimization of novel Hsp90 inhibitors with tetrahydropyrido[4,3-d]pyrimidines core through shape-based screening” (Eur J Med Chem, 2014).

Key:
[1] = target: T1, Heat shock protein HSP 90-beta (Homo sapiens, UniProt P08238); assay: Inhibition of full-length HSP90 (unknown origin) expressed in Escherichia coli assessed as inhibition of ATPase activity after 3 hrs by spectrophotometric analysis
[2] = target: T1, Heat shock protein HSP 90-beta; assay: Displacement of FITC-geldanamycin from HSP90 (unknown origin) after 30 mins by fluorescence polarization assay
[3] = Antiproliferative activity against human A231 cells after 48 hrs by MTT assay; assay type: functional, cell-based; conditions: A231, 48 h
cells = conditions: Homo sapiens, SK-BR-3, 48 h
Description: Antiproliferative activity against human SKBR3 cells after 48 hrs by MTT assay

MCF7 = assay: cells; conditions: Homo sapiens, MCF7, 48 h
HCT-116 = assay: cells; conditions: Homo sapiens, HCT-116, 48 h

T1 sequence (P08238 whole entry): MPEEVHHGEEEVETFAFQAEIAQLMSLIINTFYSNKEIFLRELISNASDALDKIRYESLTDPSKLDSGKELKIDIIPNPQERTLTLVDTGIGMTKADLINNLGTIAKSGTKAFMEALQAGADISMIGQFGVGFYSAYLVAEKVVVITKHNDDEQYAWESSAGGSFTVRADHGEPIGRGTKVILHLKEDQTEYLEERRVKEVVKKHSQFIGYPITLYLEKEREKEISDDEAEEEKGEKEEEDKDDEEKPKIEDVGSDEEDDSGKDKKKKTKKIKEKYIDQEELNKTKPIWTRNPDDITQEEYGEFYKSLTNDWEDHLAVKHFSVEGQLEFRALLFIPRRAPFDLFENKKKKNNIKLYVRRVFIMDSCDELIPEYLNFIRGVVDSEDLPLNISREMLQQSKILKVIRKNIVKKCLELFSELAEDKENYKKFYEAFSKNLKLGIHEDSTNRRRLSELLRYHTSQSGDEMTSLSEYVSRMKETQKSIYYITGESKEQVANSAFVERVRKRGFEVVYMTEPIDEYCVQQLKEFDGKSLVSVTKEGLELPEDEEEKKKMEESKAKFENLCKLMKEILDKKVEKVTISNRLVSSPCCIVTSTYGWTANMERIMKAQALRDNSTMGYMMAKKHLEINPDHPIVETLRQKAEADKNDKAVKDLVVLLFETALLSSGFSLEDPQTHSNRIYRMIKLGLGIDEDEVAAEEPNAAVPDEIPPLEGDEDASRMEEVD

SMILES | IC50 [1] | IC50 [2] | IC50 [3] | IC50 (cells) | IC50 (MCF7) | IC50 (HCT-116)
COc1cc(OC)c(OC)cc1CN1CCc2nc(N3CCOCC3)ncc2C1 | 50.9 µM |  |  |  |  | 
O=C(c1ccc(F)cc1)N1CCc2nc(N3CCN(c4ncccn4)CC3)ncc2C1 | 27.2 µM | > 100 µM | 54.4 µM | 24.5 µM | 46.2 µM | 67.9 µM
Nc1ncc2c(n1)CCN(C(=O)c1cc(Cl)c(O)cc1O)C2 | 0.51 µM | 0.31 µM | 5.22 µM | 2.3 µM | 4.41 µM | 1.21 µM
CC(C)c1cc(C(=O)N2Cc3ccc(CN4CCN(C)CC4)cc3C2)c(O)cc1O [ONALESPIB] | 0.35 µM | 0.03 µM | 1.01 µM | 0.14 µM | 0.28 µM | 0.08 µM
O=C(c1ccc(Cl)cc1)N1CCc2nc(N3CCN(c4ncccn4)CC3)ncc2C1 | 24.5 µM | > 100 µM | 24.6 µM | 11.2 µM | 42.2 µM | 21.7 µM
COc1ccc(OC)c(C(=O)N2CCc3nc(N4CCN(c5ncccn5)CC4)ncc3C2)c1 | 16.4 µM | 40.4 µM | 51.3 µM | 23.5 µM | 43.3 µM | 34.6 µM
COc1ccc(C(=O)N2CCc3nc(N4CCN(c5ncccn5)CC4)ncc3C2)c(OC)c1 | 7.88 µM | 30.5 µM | 37.6 µM | 16 µM | 20.2 µM | 11.5 µM
O=C(c1ccc(O)cc1O)N1CCc2nc(N3CCN(c4ncccn4)CC3)ncc2C1 | 3.23 µM | 10.2 µM | 21.3 µM | 12.2 µM | 17.5 µM | 23.1 µM
Cc1ncc2c(n1)CCN(C(=O)c1cc(Cl)c(O)cc1O)C2 | 0.42 µM | 0.1 µM | 3.76 µM | 4.32 µM | 1.91 µM | 2.82 µM
CO[C@H]1/C=C\C=C(/C)C(=O)NC2=CC(=O)C(NCCN(C)C)=C(C[C@@H](C)C[C@H](OC)[C@H](O)[C@@H](C)/C=C(\C)[C@@H]1OC(N)=O)C2=O [ALVESPIMYCIN] |  |  | 0.17 µM | 3.11 µM | 0.8 µM | 1.21 µM
O=C(c1cc(Cl)c(O)cc1O)N1CCc2nc(N3CCN(c4ncccn4)CC3)ncc2C1 | 0.93 µM | 1.67 µM | 6.65 µM | 5.17 µM | 10.2 µM | 2.74 µM
COc1ccc(OC)c(CN2CCc3nc(N4CCN(c5ncccn5)CC4)ncc3C2)c1 | 35.2 µM | 45.4 µM | 27.5 µM | 10.7 µM | 53.2 µM | 43.2 µM
c1cc2c(cc1CN1CCc3nc(Nc4ccc5c(c4)OCCO5)ncc3C1)OCCO2 | > 100 µM |  |  |  |  | 

Continued, in another order:

IC50 [1] | SMILES | IC50 [2] | IC50 [3] | IC50 (cells) | IC50 (MCF7) | IC50 (HCT-116)
40.2 µM | Fc1ccc(CN2CCc3nc(N4CCN(c5ncccn5)CC4)ncc3C2)cc1 | > 100 µM |  |  |  | 
88 µM | CC1CCN(c2ncc3c(n2)CCN(Cc2ccc(Br)s2)C3)CC1 |  |  |  |  | 
59.3 µM | CCCN1CCN(c2ncc3c(n2)CCN(Cc2cc(Br)cs2)C3)CC1 |  |  |  |  | 
47.9 µM | Clc1ccc(CN2CCc3nc(N4CCN(c5ncccn5)CC4)ncc3C2)cc1 | > 100 µM |  |  |  | 
55.1 µM | COc1cc(CN2CCc3nc(N4CCOCC4)ncc3C2)cc(OC)c1OC |  |  |  |  | 
46.1 µM | CN(C)c1ccc(CN2CCc3nc(N4CCN(c5ncccn5)CC4)ncc3C2)cc1 | > 100 µM |  |  |  | 
74.7 µM | CCN1CCN(c2ncc3c(n2)CCN(Cc2ccc(Br)s2)C3)CC1 |  |  |  |  | 
63.2 µM | CN1CCN(c2ncc3c(n2)CCN(Cc2ccc(Br)s2)C3)CC1 |  |  |  |  | 
